Experiment in all cases: substrate saturation curve, initial velocities
One series relates to T1, CapGH173.
T1 construct: recombinant in E. coli BL21, pET28a, N-terminal 6xHis-tag cleaved with trypsin
Type of series: biochemical, Bacteroidales bacterium MAG42. To be noted: pH 7.5, 45 °C, 70 mM McIlvaine buffer. An excerpt:
substrate saturation curve, initial velocities on CapGH173

The test system of series [1] is O=[N+]([O-])c1ccc(O[C@@H]2O[C@H](CO)[C@H](O)[C@H](O)[C@H]2O)cc1. Format: biochemical, Bacteroides xylanisolvens. To be noted: pH 7.5, 45 °C. An excerpt: substrate saturation curve, initial velocities on BXY_26070 (CBK67650)
The test system of another series is T2, CapGH43_12.
T2 construct: recombinant in E. coli BL21, pET28a, N-terminal 6xHis-tag cleaved with trypsin; gene of cluster CC102
Type of series: biochemical, Bacteroidaceae bacterium MAG57. To be noted: pH 6.5, 35 °C, 70 mM McIlvaine buffer. The text has this: substrate saturation curve, initial velocities on CapGH43_12

Another series deals with T3, CapGH97.
T3 construct: recombinant in E. coli BL21, pET28a, N-terminal 6xHis-tag cleaved with trypsin; gene of cluster CC102
Format: biochemical, Bacteroidaceae bacterium MAG57. Particulars: pH 7.0, 35 °C, 70 mM McIlvaine buffer, 5 mM CaCl2. The text has this:
substrate saturation curve, initial velocities on CapGH97

For the compound `O=[N+]([O-])c1ccc(O[C@@H]2O[C@H](CO)[C@H](O)[C@H](O)[C@H]2O)cc1` [pNP-β-D-Gal, p-nitrophenyl-β-D-galactopyranoside], the Km with CapGH173 is 570 ± 50 µM.

With “BXY_26070 (CBK67650) (Bacteroides xylanisolvens XB1A)”, in series [1], the Km came to 1190 ± 350 µM, the kcat is 29.9 ± 1.95 s⁻¹ and the kcat/Km is 25100 M⁻¹ s⁻¹.

As for `O=[N+]([O-])c1ccc(O[C@@H]2O[C@@H](CO)[C@H](O)[C@H]2O)cc1` [pNP-α-L-AraF, p-nitrophenyl-α-L-arabinofuranoside], in the series with CapGH43_12, the Km worked out at 2740 ± 290 µM.

On to `O=[N+]([O-])c1ccc(O[C@H]2O[C@H](CO)[C@H](O)[C@H](O)[C@H]2O)cc1` [pNP-α-D-Gal, p-nitrophenyl-α-D-galactopyranoside], for which, in the series on CapGH97, the Km came to 7700 ± 610 µM.

For the origin of these results see paper PMC8810776, “Gut microbiome of the largest living rodent harbors unprecedented enzymatic systems to degrade plant polysaccharides” (Nature Communications, 2022).
